Drawing on US8129366B2, “VLA-4 inhibitory drug” (Daiichi Sankyo Company, Limited, priority 2005, dated 2012), this text covers Ki, IC50 and solubility for 13 compounds.

For series [1], the target named is T1, hα4 and β1 integrins (Homo sapiens, UniProt P05556+P13612).
T1 construct: expressed in transfected cells; host or cells: CHO cells
The series is described as follows: In vitro inhibition of binding between CHO cells expressing hα4 and β1 integrins and Eu3+-hVCAM-1 D1D7-IgG. The note with it: for pKi: CHO cells expressing hα4 and β1 integrins, Eu3+-hVCAM-1 D1D7-IgG ligand, without HSA; for pIC50: in the presence of 3% human serum albumin (HSA final concentration 3%). In outline: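 Bound europium-labelled VCAM-1 D1D7-IgG on α4β1-expressing CHO cells was measured by time-resolved fluorescence after washing at 4 °C. Ligand (2 nM working dilution) and test compound, with or without 3% final HSA, were co-incubated for 1 h at room temperature in Mn²⁺-containing HEPES buffer, pH 7.5. IC50 came from % binding inhibition; Ki was calculated from ligand concentration and Scatchard Kd.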

Series [2] can be described thus: Solubility test in first and second liquid of the Japanese Pharmacopoeia. The note with it: Solubility.
Protocol: The solubilities of the substance under test in the first liquid (JP1, pH=1.2) of the Japanese Pharmacopoeia and the second liquid (JP2, pH=6.8) of the Japanese Pharmacopoeia, were evaluated.
Setting [3] is: first liquid of the Japanese Pharmacopoeia (JP1), pH 1.2, simulated gastric fluid, First liquid of Japanese Pharmacopoeia (μg/mL), JP1, pH=1.2.
Setting [4] is: second liquid of the Japanese Pharmacopoeia (JP2), pH 6.8, aqueous buffer, Second liquid of Japanese Pharmacopoeia (μg/mL), JP2, pH=6.8.

Structures are written as SMILES. pIC50, pKi: −log10 of the molar value. Values after ≈ are worked out from the molar mass of the structure shown.

T1 sequence (P13612 34-1032): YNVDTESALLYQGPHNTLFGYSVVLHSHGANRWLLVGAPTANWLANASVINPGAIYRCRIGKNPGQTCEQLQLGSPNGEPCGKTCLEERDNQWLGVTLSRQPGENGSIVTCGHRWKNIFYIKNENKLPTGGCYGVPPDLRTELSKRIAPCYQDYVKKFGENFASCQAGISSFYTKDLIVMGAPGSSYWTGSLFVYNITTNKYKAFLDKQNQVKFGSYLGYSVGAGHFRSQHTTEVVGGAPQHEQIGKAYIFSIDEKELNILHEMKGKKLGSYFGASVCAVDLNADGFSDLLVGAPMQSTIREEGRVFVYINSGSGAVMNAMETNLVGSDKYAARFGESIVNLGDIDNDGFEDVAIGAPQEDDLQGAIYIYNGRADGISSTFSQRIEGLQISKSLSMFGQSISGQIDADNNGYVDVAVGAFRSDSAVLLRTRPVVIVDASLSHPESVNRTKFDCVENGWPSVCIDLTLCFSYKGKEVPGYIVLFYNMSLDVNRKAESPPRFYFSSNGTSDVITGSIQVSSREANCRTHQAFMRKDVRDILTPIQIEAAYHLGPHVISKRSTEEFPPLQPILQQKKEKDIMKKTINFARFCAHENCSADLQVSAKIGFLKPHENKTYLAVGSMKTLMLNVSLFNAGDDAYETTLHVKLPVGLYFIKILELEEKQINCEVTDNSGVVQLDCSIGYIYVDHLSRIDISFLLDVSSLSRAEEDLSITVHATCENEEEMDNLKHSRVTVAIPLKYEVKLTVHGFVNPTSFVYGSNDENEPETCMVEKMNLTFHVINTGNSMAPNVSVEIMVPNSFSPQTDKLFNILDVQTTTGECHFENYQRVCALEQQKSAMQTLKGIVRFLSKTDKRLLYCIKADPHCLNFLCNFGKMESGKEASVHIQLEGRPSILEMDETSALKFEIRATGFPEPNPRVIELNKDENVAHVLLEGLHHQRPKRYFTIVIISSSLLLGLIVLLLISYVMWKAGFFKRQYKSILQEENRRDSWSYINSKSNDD
T1 sequence (P05556 21-798): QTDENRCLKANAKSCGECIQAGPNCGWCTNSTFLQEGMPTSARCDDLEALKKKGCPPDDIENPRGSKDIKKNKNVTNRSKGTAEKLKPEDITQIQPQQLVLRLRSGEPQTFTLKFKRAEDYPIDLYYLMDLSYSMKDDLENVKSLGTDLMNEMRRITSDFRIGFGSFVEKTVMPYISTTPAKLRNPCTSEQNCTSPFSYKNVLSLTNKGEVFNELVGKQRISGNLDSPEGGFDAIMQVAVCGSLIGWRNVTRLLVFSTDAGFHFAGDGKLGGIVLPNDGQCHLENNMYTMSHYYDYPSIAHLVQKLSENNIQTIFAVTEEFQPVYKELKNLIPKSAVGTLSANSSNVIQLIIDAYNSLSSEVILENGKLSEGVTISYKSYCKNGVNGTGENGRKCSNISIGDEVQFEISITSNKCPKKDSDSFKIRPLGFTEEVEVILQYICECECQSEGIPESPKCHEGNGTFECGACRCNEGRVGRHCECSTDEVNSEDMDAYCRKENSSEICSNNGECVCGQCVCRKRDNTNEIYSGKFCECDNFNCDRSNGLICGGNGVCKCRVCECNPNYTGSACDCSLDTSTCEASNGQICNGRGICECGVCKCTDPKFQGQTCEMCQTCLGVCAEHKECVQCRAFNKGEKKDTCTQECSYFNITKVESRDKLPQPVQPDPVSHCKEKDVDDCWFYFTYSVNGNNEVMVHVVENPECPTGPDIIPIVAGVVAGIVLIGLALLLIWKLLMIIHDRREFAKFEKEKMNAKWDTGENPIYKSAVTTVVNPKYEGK

The pKi is the Ki on a negative log10 scale, so that one unit is a factor of ten. A high value points to a low Ki. As usually defined, the pIC50 is the IC50 on a negative log10 scale, so that one unit is a factor of ten. As usually defined, the solubility is the concentration that dissolves in the medium under given conditions. For the compound `COC1CN([C@H]2C[C@@H](CO[C@H]3CC[C@H](C(=O)O)CC3)N(C(=O)Cc3cc(Cl)c(NC(=O)c4cn(C)c5ccccc45)cc3F)C2)C1` [Example 1], in series [1], the pKi is 8.72 and the negative-log IC50 (pIC50) is 7.82. In series [2] (setting [3]), the solubility was greater than 2000 µg/mL. Also, in series [2] (setting [4]), the solubility is greater than 2000 µg/mL.
With `COCCC1CN([C@H]2C[C@@H](CO[C@H]3CC[C@H](C(=O)O)CC3)N(C(=O)Cc3cc(Cl)c(NC(=O)c4csc5ccccc45)cc3F)C2)C1` [Example 12, Trans-4-[1-[[4-[(benzo[b]thiophen-3-ylcarbonyl)amino]-5-chloro-2-fluorophenyl]acetyl]-(4S)-[3-(2-methoxyethyl)azetidin-1-yl]-(2S)-pyrrolidinylmethoxy]cyclohexanecarboxylic acid], in series [1], the pKi was 9.00 and the pIC50 was 8.07. The compound further gave a solubility in series [2] (setting [3]) of 1910 µg/mL (≈ 2780 µM). For the same compound, the concentration in solution in series [2] (setting [4]) (solubility) was 1690 µg/mL (≈ 2460 µM).
Consider `Cn1cc(C(=O)Nc2cc(F)c(CC(=O)N3C[C@@H](N4CC(C)(C)C4)C[C@H]3CO[C@H]3CC[C@H](C(=O)O)CC3)cc2Cl)c2ccccc21` [Example 14, Trans-4-[1-[[5-chloro-2-fluoro-4-[(1-methyl-1H-indol-3-ylcarbonyl)amino]phenyl]acetyl]-(4S)-(3,3-dimethylazetidin-1-yl)-(2S)-pyrrolidinylmethoxy]cyclohexanecarboxylic acid], for which the solubility in series [2] (setting [3]) is 1100 µg/mL (≈ 1680 µM); in series [2] (setting [4]), 1000 µg/mL (≈ 1530 µM).
Consider `Cn1cc(C(=O)Nc2cc(Cl)c(CC(=O)N3C[C@@H](N4CC(C)(C)C4)C[C@H]3CO[C@H]3CC[C@H](C(=O)O)CC3)cc2Cl)c2ccccc21` [Example 15, Trans-4-[1-[[2,5-dichloro-4-[(1-methyl-1H-indol-3-ylcarbonyl)amino]phenyl]acetyl]-(4S)-(3,3-dimethylazetidin-1-yl)-(2S)-pyrrolidinylmethoxy]cyclohexanecarboxylic acid], for which the solubility in series [2] (setting [3]) and in series [2] (setting [4]) was 1100 µg/mL (≈ 1640 µM) each time.
For `CCOC1CN([C@H]2C[C@@H](CO[C@H]3CC[C@H](C(=O)O)CC3)N(C(=O)Cc3cc(Cl)c(NC(=O)c4cn(C)c5ccccc45)cc3Cl)C2)C1` [Example 20, Trans-4-[1-[[2,5-dichloro-4-[(1-methyl-1H-indol-3-ylcarbonyl)amino]phenyl]acetyl]-(4S)-(3-ethoxyazetidin-1-yl)-(2S)-pyrrolidinylmethoxy]cyclohexanecarboxylic acid], in series [1], the pKi is 8.41 and the negative logarithm of the IC50 (pIC50) is 7.40. The same compound showed a solubility in series [2] (setting [3]) greater than 2000 µg/mL. Moreover, the solubility in series [2] (setting [4]) amounted to 1920 µg/mL (≈ 2800 µM).
In turn, `O=C(Nc1cc(F)c(CC(=O)N2C[C@@H](N3CC(N4CCOCC4)C3)C[C@H]2CO[C@H]2CC[C@H](C(=O)O)CC2)cc1Cl)c1csc2ccccc12` [Example 27, Trans-4-[1-[[4-[(benzo[b]thiophen-3-ylcarbonyl)amino]-5-chloro-2-fluorophenyl]acetyl]-(4S)-[3-(4-morpholinyl)azetidin-1-yl]-(2S)-pyrrolidinylmethoxy]cyclohexanecarboxylic acid] showed a pKi in series [1] of 8.42. In addition, the pIC50 in series [1] is 7.37. The solubility in series [2] (setting [3]) and in series [2] (setting [4]) was 1000 µg/mL (≈ 1400 µM) each time.
Turning to `O=C(Nc1cc(F)c(CC(=O)N2C[C@@H](N3CC(N4CCCCC4)C3)C[C@H]2CO[C@H]2CC[C@H](C(=O)O)CC2)cc1Cl)c1csc2ccccc12` [Example 28, Trans-4-[1-[[4-[(benzo[b]thiophen-3-ylcarbonyl)amino]-5-chloro-2-fluorophenyl]acetyl]-(4S)-[3-(piperidin-1-yl)azetidin-1-yl]-(2S)-pyrrolidinylmethoxy]cyclohexanecarboxylic acid], in series [1], the pKi was 8.59 and the pIC50 is 7.92. For the same compound, in series [2] (setting [3]), the solubility is 1100 µg/mL (≈ 1550 µM). Further, in series [2] (setting [4]), the solubility amounted to 1100 µg/mL (≈ 1550 µM).
Consider `CN(C)CC1CN([C@H]2C[C@@H](CO[C@H]3CC[C@H](C(=O)O)CC3)N(C(=O)Cc3cc(Cl)c(NC(=O)c4cn(C)c5ccccc45)cc3F)C2)C1` [Example 29, Trans-4-[1-[[5-chloro-2-fluoro-4-[(1-methyl-1H-indol-3-ylcarbonyl)amino]phenyl]acetyl]-(4S)-[3-(N,N-dimethylaminomethyl)azetidin-1-yl]-(2S)-pyrrolidinylmethoxy]cyclohexane carboxylic acid], for which, in series [1], the pKi is 8.38 and the pIC50 was 7.92. In series [2] (setting [3]), this compound returned a solubility of 1000 µg/mL (≈ 1470 µM). In series [2] (setting [4]), this compound displayed a solubility of 1000 µg/mL (≈ 1470 µM).
As to `O=C(Nc1cc(F)c(CC(=O)N2C[C@@H](N3CC(CN4CCOCC4)C3)C[C@H]2CO[C@H]2CC[C@H](C(=O)O)CC2)cc1Cl)c1coc2ccccc12` [Example 30, Trans-4-[1-[[4-[(benzo[b]furan-3-ylcarbonyl)amino]-5-chloro-2-fluorophenyl]acetyl]-(4S)-[3-(4-morpholinylmethyl)azetidin-1-yl]-(2S)-pyrrolidinylmethoxy]cyclohexanecarboxylic acid], in series [1], the pKi was 8.34 and the pIC50 was 7.92. In series [2] (setting [3]), this compound returned a solubility of 1100 µg/mL (≈ 1550 µM). Moreover, in series [2] (setting [4]), the solubility was 1100 µg/mL (≈ 1550 µM).
As for `O=C(Nc1cc(Cl)c(CC(=O)N2C[C@@H](N3CCCC3)C[C@H]2CO[C@H]2CC[C@H](C(=O)O)CC2)cc1Cl)c1csc2ccccc12` [Example 31, Trans-4-[1-[[4-[(benzo[b]thiophen-3-ylcarbonyl)amino]-2,5-dichlorophenyl]acetyl]-(4S)-(pyrrolidin-1-yl)-(2S)-pyrrolidinylmethoxy]cyclohexanecarboxylic acid], in series [1], the pKi was 8.92 and the pIC50 is 8.24. In series [2] (setting [3]), the solubility was 1840 µg/mL (≈ 2800 µM). Moreover, the concentration in solution in series [2] (setting [4]) (solubility) came to 1680 µg/mL (≈ 2560 µM).
Regarding `CO[C@@H]1CCN([C@H]2C[C@@H](CO[C@H]3CC[C@H](C(=O)O)CC3)N(C(=O)Cc3cc(Cl)c(NC(=O)c4csc5ccccc45)cc3F)C2)C1` [Example 32, Trans-4-[1-[[4-[(benzo[b]thiophen-3-ylcarbonyl)amino]-5-chloro-2-fluorophenyl]acetyl]-(4S)-[(3R)-methoxypyrrolidin-1-yl]-(2S)-pyrrolidinylmethoxy]cyclohexanecarboxylic acid], in series [1], the pKi is 9.13 and the negative-log IC50 (pIC50) was 8.46. This compound also registered a solubility in series [2] (setting [3]) of 1700 µg/mL (≈ 2530 µM). In series [2] (setting [4]), the concentration in solution (solubility) came to 1690 µg/mL (≈ 2510 µM).
For `CO[C@@H]1CCN([C@H]2C[C@@H](CO[C@H]3CC[C@H](C(=O)O)CC3)N(C(=O)Cc3cc(Cl)c(NC(=O)c4cn(C)c5ccccc45)cc3Cl)C2)C1` [Example 33, Trans-4-[1-[[2,5-dichloro-4-[(1-methyl-1H-indol-3-ylcarbonyl)amino]phenyl]acetyl]-(4S)-[(3R)-methoxypyrrolidin-1-yl]-(2S)-pyrrolidinylmethoxy]cyclohexanecarboxylic acid], in that order: 8.25, 7.70, greater than 2000 µg/mL and greater than 2000 µg/mL.
Compound `CCO[C@@H]1CCN([C@H]2C[C@@H](CO[C@H]3CC[C@H](C(=O)O)CC3)N(C(=O)Cc3cc(Cl)c(NC(=O)c4csc5ccccc45)cc3F)C2)C1` [Example 34, Trans-4-[1-[[4-[(benzo[b]thiophen-3-ylcarbonyl)amino]-5-chloro-2-fluorophenyl]acetyl]-(4S)-[(3R)-ethoxypyrrolidin-1-yl]-(2S)-pyrrolidinylmethoxy]cyclohexanecarboxylic acid] had a negative logarithm of the Ki (pKi) in series [1] of 8.70. In series [1], the pIC50 was 8.00. Moreover, the solubility is greater than 2000 µg/mL in series [2] (setting [3]) and 1640 µg/mL (≈ 2390 µM) in series [2] (setting [4]).
